Results as given in patent publication US20170339957A1, “AQUEOUS DISPERSIONS” (Rohm and Haas Company, priority 2011, published 2017).

Legend:
[1] = Protocol 1: dissolving BIT in basic solution (exotherm peak, pH, dissolution and inherent precipitation temperature); assay type: physicochemical
Text: “Protocol 1” means the following: A mixture (herein “mixture 1”) was formed as follows: 151.18 g of BIT paste (concentration 83% to 85% BIT by weight based on the weight of the paste) was mixed with basic solution and with water. The amount of basic solution was chosen to have equivalent ratio of 1:1 with BIT, and the amount of water was chosen to make Mixture 1 have the desired concentration of BIT. In some cases, the process of mixing the ingredients of Mixture 1 is exothermic; in such cases, the peak temperature reached by the mixture was recorded as the “exotherm peak.” From that mixture, a sample of 100 g (herein the “test1 batch”) was used. If some or all of the BIT was not dissolved, the test1 batch was heated (up to a maximum of 61° C.), and if there was a temperature of 61° C. or below at which all the BIT was dissolved, that temperature was recorded as the “dissolution temperature.” If BIT is all dissolved at ambient temperature, the dissolution temperature is herein taken to be 23° C. Then, the inherent precipitation temperature was observed by cooling the test 1 batch to 0° C. or to a point at which BIT precipitated, whichever temperature is higher. Then, the test 1 batch was heated to a temperature (herein “T2”) at or above the dissolution temperature; while the solution was at temperature T2, thickener was added and acid solution was added.
In some of the Examples below, Protocol 1 was performed repeatedly, using various basic solutions and various concentrations of BIT. The purpose of these repeated performances of Protocol 1 was to answer the following question: “While using a specific basic solution and using temperatures between approximately 23° C. and approximately 60° C., when making aqueous mixture (I), what range of BIT concentration is possible?”

[2] = pH 7.5 or lower; cited from earlier work

O=c1[nH]sc2ccccc12 [BIT, 1,2-Benzisothiazolin-3-one]
BIT concentration range for making aqueous mixture (I) ([1]; using ammonia): 5%
BIT concentration range for making aqueous mixture (I) ([1]; using diaminoethane): 5%
BIT concentration range for making aqueous mixture (I) ([1]; using mono-ethanolamine): 5%
solubility in water [2]: low solubility
